Earlier results on 1 substance are cited in patent US20240423961A1, “1H-1,2,3-TRIAZOLE-4-CARBOXYLIC ACIDS FOR TREATMENT OF HYPEROXALURIA AND KIDNEY STONES” (CANTERO THERAPEUTICS, INC., priority 2021, published 2024).

“And” between values parts separate entries of the source, which are not always exact repeats. Equal entries are not always repeated. Where two headings read alike, the source gives them in different places.

For this data set, the system named is glycolate oxidase (GO). Conditions: cited from earlier work.

In the case of lumasiran, the “measured peak plasma glycolate relative to baseline levels” value by setting is: (single subcutaneous dose 0.3 mg/kg) roughly 1.6 fold; (single subcutaneous dose 1.0 mg/kg) roughly 2.5 fold; (single subcutaneous dose 3.0 mg/kg, 3 mg/kg) ~3.1 fold and ~3 fold; (single subcutaneous dose 6.0 mg/kg) roughly 7.3 fold.
